ChEMBL document CHEMBL1201862, “PubChem BioAssay data set” (2004)
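Values below derive from 48-hour exposures of cells grown in 96-well plates, with endpoints linearly interpolated between the two concentrations bracketing the appropriate inhibition level. At the GI50, growth is halved.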 The source made the active and inactive calls. Rule as the data show it: active = GI50 up to about 1.1 µM and inactive = higher.

Key:
Assay in all cases: NCI anticancer screen, dose series, 48 h
[1] = tested on: HCC 2998
[2] = tested on: HOP-62
[3] = tested on: SNB-75
[4] = tested on: OVCAR-8
[5] = tested on: ACHN
[6] = tested on: OVCAR-5
[7] = tested on: 786-0
[8] = tested on: A498
[9] = tested on: A549
[10] = tested on: U-251
[11] = tested on: UACC-62
[12] = tested on: PC-3
[13] = tested on: HCT-116
[14] = tested on: NCI-H23
[15] = tested on: NCI-H460
[16] = tested on: HOP-92
[17] = tested on: SW-620
[18] = tested on: CCRF-CEM
[19] = tested on: Malme-3M
[20] = tested on: RXF 393
[21] = tested on: MOLT-4
[22] = tested on: SF-295
[23] = tested on: T47D
[24] = tested on: EKVX
[25] = tested on: SNB-19
[26] = tested on: MDA-MB-231
[27] = tested on: K562
[28] = tested on: SF-268
[29] = tested on: TK-10
[30] = tested on: MDA-MB-435
[31] = tested on: CAKI-1
[32] = tested on: COLO 205
[33] = tested on: Hs-578T
[34] = tested on: HT-29
[35] = tested on: SF-539
[36] = tested on: HL-60
[37] = tested on: NCI/ADR-RES
[38] = tested on: RPMI-8226
[39] = tested on: KM12
[40] = tested on: SR
[41] = tested on: HCT-15
[42] = tested on: BT-549
[43] = tested on: MDA-N
[44] = tested on: SK-OV-3
[45] = tested on: MCF7
[46] = tested on: LOX IMVI
[47] = tested on: DU-145
[48] = tested on: SK-MEL-2
[49] = tested on: OVCAR-3
[50] = tested on: M14
[51] = tested on: IGROV-1
[52] = tested on: UACC-257
[53] = tested on: UO-31
[54] = tested on: SN12C
[55] = tested on: NCI-H522
[56] = tested on: SK-MEL-5
[57] = tested on: OVCAR-4
[58] = tested on: NCI-H226
[59] = tested on: SK-MEL-28

Measured: GI50

CCC1(O)C(=O)OCc2c1cc1n(c2=O)Cc2cc3ccccc3nc2-1 (configuration not stated)
inactive: [12] 2.03 µM | [29] 6.73 µM | [33] 7.73 µM
active: [1] 0.895 µM | [2] < 0.0149 µM | [3] < 0.0215 µM | [4] 0.0653 µM | [5] 0.153 µM | [6] 0.347 µM | [7] 0.0279 µM | [8] 0.94 µM | [9] 0.0221 µM | [10] 0.0261 µM | [11] 0.0128 µM | [13] 0.048 µM | [14] < 0.0188 µM | [15] < 0.0403 µM | [16] 0.12 µM | [17] 0.167 µM | [18] < 0.0122 µM | [19] 0.431 µM | [20] 0.073 µM | [21] < 0.01 µM | [22] < 0.01 µM | [23] 0.0237 µM | [24] 0.0869 µM | [25] 0.0143 µM | [26] 0.857 µM | [27] 0.0455 µM | [28] < 0.0168 µM | [30] 0.139 µM | [31] < 0.01 µM | [32] 0.101 µM | [34] 0.0653 µM | [35] 0.0157 µM | [36] 0.017 µM | [37] 0.0444 µM | [38] 0.048 µM | [39] 0.221 µM | [40] < 0.01 µM | [42] 0.211 µM | [43] 0.0817 µM | [44] 0.0312 µM | [45] 0.0405 µM | [46] < 0.0152 µM | [47] 0.018 µM | [48] 0.575 µM | [49] 0.308 µM | [50] < 0.01 µM | [51] 0.0635 µM | [52] 0.417 µM | [53] 0.0235 µM | [54] 0.0703 µM | [55] 0.0471 µM | [56] 0.0473 µM | [57] 0.504 µM | [58] 0.277 µM | [59] 0.334 µM
0.239 µM: [41]

OCc1ccn2c1[C@@H](O)CC2
inactive: [1] > 100 µM | [2] > 100 µM | [3] > 100 µM | [4] > 100 µM | [5] > 100 µM | [6] > 100 µM | [7] > 100 µM | [8] > 100 µM | [9] > 100 µM | [10] > 100 µM | [11] > 100 µM | [12] > 100 µM | [13] > 100 µM | [14] > 100 µM | [15] > 100 µM | [16] > 100 µM | [17] > 100 µM | [18] > 100 µM | [19] > 100 µM | [20] > 100 µM | [21] > 100 µM | [22] > 100 µM | [23] > 100 µM | [24] > 100 µM | [25] > 100 µM | [26] > 100 µM | [27] > 100 µM | [28] > 100 µM | [29] > 100 µM | [30] > 100 µM | [31] > 100 µM | [32] > 100 µM | [33] > 100 µM | [34] > 100 µM | [35] > 100 µM | [36] > 100 µM | [37] > 100 µM | [38] > 100 µM | [39] > 100 µM | [40] > 100 µM | [42] > 100 µM | [43] > 100 µM | [44] > 100 µM | [45] > 100 µM | [46] > 100 µM | [47] > 100 µM | [48] > 100 µM | [49] > 100 µM | [50] > 100 µM | [51] > 100 µM | [52] > 100 µM | [54] > 100 µM | [55] 1.55 µM | [56] > 100 µM | [57] > 100 µM | [58] > 100 µM | [59] > 100 µM
> 100 µM: [41]
